The experiment deals with T1, human RORγt (Ligand Binding Domain) (Homo sapiens, UniProt P51449).
T1 construct: purchased Crelux (Planegg, Germany) batch no PC5032-1
T1 sequence (P51449 269-508 limits assumed): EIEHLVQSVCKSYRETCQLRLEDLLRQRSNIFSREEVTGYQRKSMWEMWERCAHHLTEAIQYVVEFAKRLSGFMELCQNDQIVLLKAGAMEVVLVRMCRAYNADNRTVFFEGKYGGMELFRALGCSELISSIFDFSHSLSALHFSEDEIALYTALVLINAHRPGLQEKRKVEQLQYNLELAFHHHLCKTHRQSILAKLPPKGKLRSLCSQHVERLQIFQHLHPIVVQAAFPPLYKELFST
In words: Fluorescence Polarization (FP) Assay. To be noted: 100 nM human RORγt LBD, 25 nM TAMRA probe, values are activity range bounds. As to the method: The activity of the compounds was evaluated using a Fluorescence Polarization (FP) Assay and, RORγ Reporter assay (also referred to as Gal4 assay). The FP assay is an in vitro assay monitoring binding within the ligand binding pocket. The RORγ and the Th17 assays (another suitable assay) are both cell-based assays monitoring functional activity of the compound assayed.
Fluorescence Polarization (FP) Assay
The total volume was 25 μl, in a black Perkin Elmer OptiPlate. As negative control, 1 μl DMSO was used. […] The probe is a fluorescently labeled (TAMRA) RORγt ligand identified by Nuevolution with a total molecular weight of 910 g/mole as shown in Graph A in FIG. 1.
`COc1cc(CN(c2ncnc(NCc3ccc(CC(N)=O)cc3)c2F)C2CC2)ccc1Cl` [Example A156, 2-[4-[[[6-[(4-chloro-3-methoxy-phenyl)methyl-cyclopropyl-amino]-5-fluoro-pyrimidin-4-yl]amino]methyl]phenyl]acetamide] gave an IC50 of less than 500 nM.
As for `COc1ccc(CN(C)c2ncnc(N(Cc3ccc(C(F)(F)F)cc3)C3CC3)c2F)cn1` [Example A24, N6-cyclopropyl-5-fluoro-N4-[(6-methoxy-3-pyridyl)methyl]-N4-methyl-N6-[[4-(trifluoromethyl)phenyl]methyl] pyrimidine-4,6-diamine], the figure is less than 500 nM; as for `CC(C)(C)OC(=O)NCC(c1ccc(C(F)(F)F)cc1)N(c1ncnc(NCc2ccc(CC(N)=O)cc2)c1F)C1CC1` (stereo not drawn) [Example A47, tert-butyl N-[2-[[6-[[4-(2-amino-2-oxo-ethyl)phenyl]methylamino]-5-fluoro-pyrimidin-4-yl]-cyclopropyl-amino]-2-[4-(trifluoromethyl)phenyl]ethyl] carbamate], less than 10000 nM; as for `CN(Cc1cccc(C(F)(F)F)c1)c1ncnc(NCc2ccc(CC(N)=O)cc2)c1F` [Example A129, 2-[4-[[[5-fluoro-6-[methyl-[[3-(trifluoromethyl)phenyl]methyl]amino]pyrimidin-4-yl]amino]methyl]phenyl]acetamide], less than 500 nM.
`Cn1cc(CN(c2ncnc(NCc3ccc(CC(N)=O)cc3)c2F)C2CC2)cn1` [Example A119, 2-[4-[[[6-[cyclopropyl-[(1-methylpyrazol-4-yl)methyl]amino]-5-fluoro-pyrimidin-4-yl]amino]methyl]phenyl]acetamide] registered an IC50 of less than 2000 nM.
As for `O=C(O)C[C@H](Nc1ncnc(N(Cc2ccc(C(F)(F)F)cc2)C2CC2)c1F)c1ccccc1` [Example A182, (3S)-3-[[6-[cyclopropyl-[[4-(trifluoromethyl)phenyl]methyl]amino]-5-fluoro-pyrimidin-4-yl]amino]-3-phenyl-propanoic acid], the figure is less than 10000 nM; as for `O=C(O)C(CNc1ncnc(N(Cc2ccc(C(F)(F)F)cc2)C2CC2)c1F)CC1CCOCC1` (stereo not drawn) [Example A185, 2-[[[6-[cyclopropyl-[[4-(trifluoromethyl)phenyl]methyl]amino]-5-fluoro-pyrimidin-4-yl]amino]methyl]-3-tetrahydropyran-4-yl-propanoic acid], less than 10000 nM; as for `CC1CCC(CNc2ncnc(N(Cc3ccc(C(F)(F)F)cc3)C3CC3)c2F)CC1` (stereo not drawn) [Example A32, N6-cyclopropyl-5-fluoro-N4-[(4-methylcyclohexyl)methyl]-N6-[[4-(trifluoromethyl)phenyl]methyl] pyrimidine-4,6-diamine], less than 500 nM.
With `CN(C)CCCNC(=O)CC1(CNc2ncnc(N(Cc3ccc(C(F)(F)F)cc3)C3CC3)c2F)CCOCC1` [Example A153, 2-[4-[[[6-[cyclopropyl-[[4-(trifluoromethyl)phenyl]methyl]amino]-5-fluoro-pyrimidin-4-yl]amino]methyl]tetrahydropyran-4-yl]-N-[3-(dimethylamino)propyl]acetamide] the figure was less than 10000 nM; with `CS(=O)(=O)Nc1ncc(CNc2ncnc(N(Cc3ccc(C(F)(F)F)cc3)C3CC3)c2F)cn1` [Example A111, N-[5-[[[6-[cyclopropyl-[[4-(trifluoromethyl)phenyl]methyl]amino]-5-fluoro-pyrimidin-4-yl]amino]methyl]pyrimidin-2-yl]methanesulfonamide], less than 1000 nM; with `COCCNS(=O)(=O)c1ccc(CNc2ncnc(N(C)Cc3ccc(-n4cccn4)cc3)c2F)cc1` [Example A136, 4-[[[5-fluoro-6-[methyl-[(4-pyrazol-1-ylphenyl)methyl]amino]pyrimidin-4-yl]amino]methyl]-N-(2-methoxyethyl)benzenesulfonamide], less than 2000 nM.
With `Fc1c(NCc2ccc(-c3nnn[nH]3)cc2)ncnc1N(Cc1ccc(C(F)(F)F)cc1)C1CC1` [Example A23, N6-cyclopropyl-5-fluoro-N4-[[4-(1H-tetrazol-5-yl)phenyl]methyl]-N6-[[4-(trifluoromethyl)phenyl]methyl] pyrimidine-4,6-diamine] the figure was less than 500 nM; with `CS(=O)(=O)N1CCC(CNc2ncnc(N(Cc3ccc(C(F)(F)F)cn3)C3CC3)c2F)C1` (stereo not drawn) [Example A166, N6-cyclopropyl-5-fluoro-N4-[(1-methylsulfonylpyrrolidin-3-yl)methyl]-N6-[[5-(trifluoromethyl)-2-pyridyl]methyl]pyrimidine-4,6-diamine], less than 10000 nM; with `CS(=O)(=O)CC1(CNc2ncnc(N(Cc3ccc(C(F)(F)F)cc3)C3COC3)c2F)CCOCC1` [Example A45, 5-fluoro-N6-[[4-(methylsulfonylmethyl)tetrahydro-pyran-4-yl]methyl]-N4-(oxetan-3-yl)-N4-[[4-(trifluoromethyl)phenyl]methyl] pyrimidine-4,6-diamine], less than 2000 nM.
`O=C(O)CCNC(=O)CC1(CNc2ncnc(N(Cc3ccc(C(F)(F)F)cc3)C3CC3)c2F)CCOCC1` [Example A155, 3-[[2-[4-[[[6-[cyclopropyl-[[4-(trifluoromethyl)phenyl]methyl]amino]-5-fluoro-pyrimidin-4-yl]amino]methyl]tetrahydropyran-4-yl]acetyl]amino]propanoic acid]: the IC50 is less than 1000 nM.
As for `OC1(CNc2ncnc(N(Cc3ccc(C(F)(F)F)cc3)C3CC3)c2F)CCC(F)(F)CC1` [Example A44, 1-[[[6-[cyclopropyl-[[4-(trifluoromethyl)phenyl]methyl]amino]-5-fluoro-pyrimidin-4-yl]amino]methyl]-4,4-difluoro-cyclohexanol], the figure is less than 500 nM.
With `O=C(O)CC1CCC(CNc2ncnc(N(Cc3ccc(C(F)(F)F)cc3)C3CC3)c2F)CC1` (stereo not drawn) [Example A36, 2-[4-[[[6-[cyclopropyl-[[4-(trifluoromethyl)phenyl]methyl]amino]-5-fluoro-pyrimidin-4-yl]amino]methyl]cyclohexyl]acetic acid] the figure was less than 500 nM; with `CN1CCC(NC(=O)CC2(CNc3ncnc(N(Cc4ccc(C(F)(F)F)cc4)C4CC4)c3F)CCOCC2)C1` (stereo not drawn) [Example A152, 2-[4-[[[6-[cyclopropyl-[[4-(trifluoromethyl)phenyl]methyl]amino]-5-fluoro-pyrimidin-4-yl]amino]methyl]tetrahydropyran-4-yl]-N-(1-methylpyrrolidin-3-yl)acetamide], less than 10000 nM; with `CCN(Cc1cn(CC)nc1C)c1ncnc(NCc2ccc(CC(N)=O)cc2)c1F` [Example A123, 2-[4-[[[6-[ethyl-[(1-ethyl-3-methyl-pyrazol-4-yl)methyl]amino]-5-fluoro-pyrimidin-4-yl]amino]methyl]phenyl]acetamide], less than 10000 nM.
`N#CNC(=O)c1ccc(CNc2ncnc(N(Cc3ccc(C(F)(F)F)cc3)C3CC3)c2F)cc1` [Example A84, N-cyano-4-[[[6-[cyclopropyl-[[4-(trifluoromethyl)phenyl]methyl]amino]-5-fluoro-pyrimidin-4-yl]amino]methyl]benzamide] yielded an IC50 of less than 500 nM.
With `OCC1(CNc2ncnc(N(Cc3ccc(C(F)(F)F)cc3)C3CC3)c2F)COC1` [Example A26, [3-[[[6-[cyclopropyl-[[4-(trifluoromethyl)phenyl]methyl]amino]-5-fluoro-pyrimidin-4-yl]amino]methyl]oxetan-3-yl]methanol] the figure was less than 500 nM; with `O=C(O)CC1(Nc2ncnc(N(Cc3ccc(C(F)(F)F)cc3)C3CC3)c2F)CCOCC1` [Example A183, 2-[4-[[6-[cyclopropyl-[[4-(trifluoromethyl)phenyl]methyl]amino]-5-fluoro-pyrimidin-4-yl]amino]tetrahydropyran-4-yl]acetic acid], less than 2000 nM.
With `Fc1c(NCC2CCCS2)ncnc1N(Cc1ccc(C(F)(F)F)cc1)C1CC1` (stereo not drawn) [Example A28, N6-cyclopropyl-5-fluoro-N4-(tetrahydrothiophen-2-ylmethyl)-N6-[[4-(trifluoromethyl)phenyl]methyl] pyrimidine-4,6-diamine] the figure was less than 1000 nM.
With `CN(Cc1cccc(-n2cccn2)c1)c1ncnc(NCc2ccc(CS(C)(=O)=O)cc2)c1F` [Example A144, 5-fluoro-N6-methyl-N4-[[4-(methylsulfonylmethyl)phenyl]methyl]-N6-[(3-pyrazol-1-ylphenyl)methyl]pyrimidine-4,6-diamine] the figure was less than 10000 nM.
For the molecule `N#Cc1cccc(CN(c2ncnc(NCc3ccc(CC(N)=O)cc3)c2F)C2CC2)c1` [Example A163, 2-[4-[[[6-[(3-cyanophenyl)methyl-cyclopropyl-amino]-5-fluoro-pyrimidin-4-yl]amino]methyl]phenyl]acetamide], the IC50 was less than 500 nM.
`OCCC1(CNc2ncnc(N(Cc3ccc(C(F)(F)F)cc3)C3CC3)c2F)CCOCC1` [Example A22, 2-[4-[[[6-[cyclopropyl-[[4-(trifluoromethyl)phenyl]methyl]amino]-5-fluoro-pyrimidin-4-yl]amino]methyl]tetrahydropyran-4-yl]ethanol] had an IC50 of less than 500 nM.
With `CN(Cc1ccc(-n2cccn2)cc1)c1ncnc(NCC2(CS(C)(=O)=O)CCOCC2)c1F` [Example A133, 5-fluoro-N6-methyl-N4-[[4-(methylsulfonylmethyl)tetrahydro-pyran-4-yl]methyl]-N6-[(4-pyrazol-1-ylphenyl)methyl]pyrimidine-4,6-diamine] the figure was less than 2000 nM.

Values taken from patent US10683293B2, “Optionally fused heterocyclyl-substituted derivatives of pyrimidine useful for the treatment of inflammatory, metabolic, oncologic and autoimmune diseases” (NUEVOLUTION A/S, priority 2014, dated 2020).
